The results in this text go back to US20250114359A1, “METHODS FOR […] G[…]/OR HEXOKINASE” (UNIVERSITY OF SOUTH CAROLINA, priority 2023, published 2025).

Molecules are shown by their SMILES.

In this test the target is Trypanosoma cruzi glucokinase (TcGlcK) (Trypanosoma cruzi, UniProt Q4E4E1). In words: Determination of Ki values by type 1 and type 2 Dixon plots.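 Also: compounds supplied as 10 mM DMSO stocks (100 µL format), with a non-inhibitory compound run alongside for comparison.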 The format is biochemical.
Sequence of Trypanosoma cruzi glucokinase (TcGlcK) (Q4E4E1 1-376): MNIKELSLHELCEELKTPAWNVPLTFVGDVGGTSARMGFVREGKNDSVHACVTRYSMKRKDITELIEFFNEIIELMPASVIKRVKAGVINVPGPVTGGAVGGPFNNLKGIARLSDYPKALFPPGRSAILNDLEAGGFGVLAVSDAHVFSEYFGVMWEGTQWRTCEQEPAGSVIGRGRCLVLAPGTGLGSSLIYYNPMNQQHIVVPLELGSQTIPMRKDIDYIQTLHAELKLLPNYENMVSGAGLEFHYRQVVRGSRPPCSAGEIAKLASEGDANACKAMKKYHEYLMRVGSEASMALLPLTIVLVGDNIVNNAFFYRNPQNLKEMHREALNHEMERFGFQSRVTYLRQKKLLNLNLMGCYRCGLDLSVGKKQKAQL

Experimental: The inhibition constant can be determined by development of a Dixon plot (either type 1 or type 2) according to standard practice, and as utilized herein refers to the inhibitor concentration at which half maximum inhibition is determined for a 100 μL/10 mM format in DMSO.
Determination of the Ki values for inhibitors was performed by creation of both type 1 and type 2 Dixon plots. The format included 100 μL/10 mM in DMSO.

The compound `Cc1cc2c(C(C)C)c(O)c(O)c(/C=N/CCOc3ccc(C4CCCCC4)cc3)c2c(O)c1-c1c(C)cc2c(C(C)C)c(O)c(O)c(/C=N/CCOc3ccc(C4CCCCC4)cc3)c2c1O` (atropisomer, axis not shown) [Inhibitor 80] displayed a Ki of 11.8 µM. The same measure, in the same setting: then `Cc1cc2c(C(C)C)c(O)c(O)c(/C=N/CCOc3ccc4c(c3)CCC4)c2c(O)c1-c1c(C)cc2c(C(C)C)c(O)c(O)c(/C=N/CCOc3ccc4c(c3)CCC4)c2c1O` (atropisomer, axis not shown) [Inhibitor 82], with 98.9 µM; and `CCCSCC/N=C/c1c(O)c(O)c(C(C)C)c2cc(C)c(-c3c(C)cc4c(C(C)C)c(O)c(O)c(/C=N/CCSCC)c4c3O)c(O)c12` (atropisomer, axis not shown) [Inhibitor 83], with 84.5 µM. Still for that read-out and setting: the result for `Cc1cc2c(c(O)c1-c1c(C)cc3c(c1O)/C(=C/NCSN)C(=O)C(O)=C3C(C)C)/C(=C/NCSN)C(=O)C(O)=C2C(C)C` (atropisomer, axis not shown) [Inhibitor 85] reads 30.1 µM. The same measure, in the same setting: the result for `Cc1cc2nc[nH]c2c(/N=C/c2c(O)c(O)c(C(C)C)c3cc(C)c(-c4c(C)cc5c(C(C)C)c(O)c(O)c(/C=N/c6c(C)c(C)cc7nc[nH]c67)c5c4O)c(O)c23)c1C` (atropisomer, axis not shown) [Inhibitor 86] reads 2.58 µM.

Compound `Cc1cc2c(C(C)C)c(O)c(O)c(/C=N/c3cccc(N4CCCC4=O)c3)c2c(O)c1-c1c(C)cc2c(C(C)C)c(O)c(O)c(/C=N/c3cccc(N4CCCC4=O)c3)c2c1O` (atropisomer, axis not shown) [Inhibitor 87] came in with a Ki of 17.6 µM. Still for that read-out and setting: then `Cc1cc(C)cc(OCC(=O)C/N=C/c2c(O)c(O)c(C(C)C)c3cc(C)c(-c4c(C)cc5c(C(C)C)c(O)c(O)c(/C=N/NC(=O)COc6cc(C)cc(C)c6)c5c4O)c(O)c23)c1` [Inhibitor 3], with 60.4 µM; and `Cc1cc(C(=O)N/N=C/c2c(O)c(O)c(C(C)C)c3cc(C)c(-c4c(C)cc5c(C(C)C)c(O)c(O)c(/C=N/NC(=O)c6cc(C)[nH]n6)c5c4O)c(O)c23)n[nH]1` [Inhibitor 4], with 19.1 µM; and `Cc1cc2c(C(C)C)c(O)c(O)c(/C=N/NC(=O)C(C)C)c2c(O)c1-c1c(C)cc2c(C(C)C)c(O)c(O)c(/C=N/NC(=O)C(C)C)c2c1O` [Inhibitor 6], with 30.2 µM. For the compound `Cc1cc2c(C(C)C)c(O)c(O)c(/C=N/Nc3nc4ccccc4[nH]c3=O)c2c(O)c1-c1c(C)cc2c(C(C)C)c(O)c(O)c(/C=N/Nc3nc4ccccc4[nH]c3=O)c2c1O` [Inhibitor 7], the Ki was 3.83 µM. On the same count and under the same terms, then `Cc1cc2c(C(C)C)c(O)c(O)c(/C=N/NCc3ccccc3Cl)c2c(O)c1-c1c(C)cc2c(C(C)C)c(O)c(O)c(/C=N/NCc3ccccc3Cl)c2c1O` [Inhibitor 8], with 56.3 µM; and `Cc1cc2c(C(C)C)c(O)c(O)c(/C=N/Nc3cccc(Cl)n3)c2c(O)c1-c1c(C)cc2c(C(C)C)c(O)c(O)c(/C=N/Nc3cccc(Cl)n3)c2c1O` [Inhibitor 9], with 11 µM; and `Cc1ccc(OCC/N=C/c2c(O)c(O)c(C(C)C)c3cc(C)c(-c4c(C)cc5c(C(C)C)c(O)c(O)c(/C=N/CCOc6ccc(C)cc6)c5c4O)c(O)c23)cc1` [Inhibitor 10], with 3.4 µM. Same read-out and setting: the result for `COc1ccc(OC)c(/N=C/c2c(O)c(O)c(C(C)C)c3cc(C)c(-c4c(C)cc5c(C(C)C)c(O)c(O)c(/C=N/c6cc(OC)ccc6OC)c5c4O)c(O)c23)c1` [Inhibitor 11] reads 30.5 µM; that for `CCOC(=O)Nc1ccc(/N=C/c2c(O)c(O)c(C(C)C)c3cc(C)c(-c4c(C)cc5c(C(C)C)c(O)c(O)c(/C=N/c6ccc(NC(=O)OCC)cc6)c5c4O)c(O)c23)cc1` [Inhibitor 12], 4710 µM; that for `Cc1cc2c(c(O)c1-c1c(C)cc3c(c1O)/C(=C\Nc1ccc(S(=O)(=O)NC(=N)N)cc1)C(=O)C(O)=C3C(C)C)/C(=C/Nc1ccc(S(=O)(=O)NC(=N)N)cc1)C(=O)C(O)=C2C(C)C` [Inhibitor 16], 1.03 µM. `Cc1cc2c(c(O)c1-c1c(C)cc3c(c1O)/C(=C\Nc1c(O)cc(S(=O)(=O)O)c4ccccc14)C(=O)C(O)=C3C(C)C)/C(=C/Nc1c(O)cc(S(=O)(=O)O)c3ccccc13)C(=O)C(O)=C2C(C)C` [Inhibitor 29] registered a Ki of 9.6 µM.

`Cc1cc2c(c(O)c1-c1c(C)cc3c(c1O)/C(=C/Nc1cccc(C(=C4C=CC(=N)C=C4)c4ccc(N)cc4)c1)C(=O)C(O)=C3C(C)C)/C(=C/Nc1cccc(C(=C3C=CC(=N)C=C3)c3ccc(N)cc3)c1)C(=O)C(O)=C2C(C)C` [Inhibitor 30] came in with an inhibitory constant (Ki) of 3.9 µM. For `CC1=C(C2=C(C)C(=O)c3c(c(C=O)c(O)c(O)c3C(C)C)C2=O)C(=O)c2c(C=O)c(O)c(O)c(C(C)C)c2C1=O` [Inhibitor 31], the Ki was found to be 960 µM. With `Cc1cc2c(c(O)c1-c1c(C)cc3c(c1O)C(C=C1C(=O)NC(=O)NC1=O)C(=O)C(O)=C3C(C)C)C(C=C1C(=O)NC(=O)NC1=O)C(=O)C(O)=C2C(C)C` (stereo not drawn) [Inhibitor 32], the Ki stood at 10.6 µM. Same read-out and setting: the result for `Cc1cc(C=O)c(O)c(C=O)c1` [Inhibitor 44] reads 99.1 µM. The same measure, in the same setting: the result for `Cc1cc2c(C(C)C)c(O)c(O)c(/C=N/c3ccc(C(O)C(O)CO)cc3)c2c(O)c1-c1c(C)cc2c(C(C)C)c(O)c(O)c(/C=N/c3ccc(C(O)C(O)CO)cc3)c2c1O` (stereo not drawn) [Inhibitor 48] reads 274 µM; that for `Cc1cc2c(C(C)C)c(O)c(O)c(/C=N/CC34CC5CC(C)(CC(C)(C5)C3)C4)c2c(O)c1-c1c(C)cc2c(C(C)C)c(O)c(O)c(/C=N/C34CC5CC(C)(CC(C)(C5)C3)C4)c2c1O` [Inhibitor 50], 51.3 µM. `COc1cc(/C=N/c2c(C)n(C)n(-c3ccccc3)c2=O)ccc1O` [Inhibitor 62]: the affinity corresponds to a Ki of 19.9 µM.

On to `O=C1NC(=S)S/C1=C/c1ccc(O)cc1` [Inhibitor 66], for which the Ki came out at 14.7 µM.

Regarding `CN(C)c1ccc(/C=C2/SC(=S)NC2=O)cc1` [Inhibitor 68], the Ki turned out to be 0.27 µM. Same read-out and setting: then `COc1ccc2ccccc2c1/C=C1\SC(=S)NC1=O` [Inhibitor 69], with 12.9 µM; and `Cc1cc2c(c(O)c1-c1c(C)cc3c(c1O)/C(=C/NC(C)CCc1ccco1)C(=O)C(O)=C3C(C)C)/C(=C/NC(C)CCc1ccco1)C(=O)C(O)=C2C(C)C` (stereo not drawn) [Inhibitor 73], with 2.03 µM. In the case of `CCCCCC1CCC(=O)N1CCN/C=C1\C(=O)C(O)=C(C(C)C)c2cc(C)c(-c3c(C)cc4c(c3O)/C(=C/NCCN3C(=O)CCC3CCCCC)C(=O)C(O)=C4C(C)C)c(O)c21` (stereo not drawn) [Inhibitor 75], affinity was put at a Ki of 560 µM. Turning to `Cc1cc2c(C(C)C)c(O)c(O)c(/C=N/NC(N)=S)c2c(O)c1-c1c(O)cc2c(/C=N/NC(N)=S)c(O)c(O)c(C(C)C)c2c1C` [comparative compound, reference compound], the “inhibition (Dixon plots)” value (type 1 and type 2 Dixon plots, comparison compound) is on record as “does not exhibit inhibition”.

For orientation: Ki means a measure of affinity in units of concentration, obtained from inhibition or displacement. A lower Ki goes with higher affinity.
